Measured values reported in PMC7872314, “Modeling Bioavailable Concentrations in Zebrafish Cell Lines and Embryos Increases the Correlation of Toxicity Potencies across Test Systems” (Environmental Science & Technology, 2020).
Like-named read-outs stand apart in the source and are kept apart here.

Experiments:
[1] = tested on: ZF4 (fibroblasts) cell line; assay: MTS assay (MTS/BCA multiplex), NAD(P)H metabolism; format: cell-based, zebrafish (Danio rerio); details: Danio rerio, Fibroblast
[2] = tested on: ZFL (hepatocytes) cell line; assay: cells; format: cell-based, zebrafish (Danio rerio); details: Danio rerio, Hepatocyte
[3] = tested on: ZF4 (fibroblasts) cell line; assay: BCA assay (MTS/BCA multiplex), protein amount; format: cell-based, zebrafish (Danio rerio); details: Danio rerio, Fibroblast
[4] = tested on: ZFL (hepatocytes) cell line; assay: cells; format: cell-based, zebrafish (Danio rerio); details: Danio rerio, Hepatocyte; remark: listed apart in the source
[5] = tested on: ZF4 (fibroblasts) cell line; assay: ATP assay (ATP/LDH multiplex), ATP metabolism; format: cell-based, zebrafish (Danio rerio); details: Danio rerio, Fibroblast
[6] = tested on: ZFL (hepatocytes) cell line; assay: cells; format: cell-based, zebrafish (Danio rerio); details: Danio rerio, Hepatocyte; remark: listed apart in the source
[7] = tested on: ZF4 (fibroblasts) cell line; assay: alamarBlue (AB) endpoint of AB/CFDA/NR multiplex, cellular respiration; format: cell-based, zebrafish (Danio rerio); details: Danio rerio, Fibroblast
[8] = tested on: ZFL (hepatocytes) cell line; assay: cells; format: cell-based, zebrafish (Danio rerio); details: Danio rerio, Hepatocyte; remark: listed apart in the source
[9] = tested on: ZF4 (fibroblasts) cell line; assay: CFDA endpoint of AB/CFDA/NR multiplex, membrane stability; format: cell-based, zebrafish (Danio rerio); details: Danio rerio, Fibroblast
[10] = tested on: ZFL (hepatocytes) cell line; assay: cells; format: cell-based, zebrafish (Danio rerio); details: Danio rerio, Hepatocyte; remark: listed apart in the source
[11] = tested on: ZF4 (fibroblasts) cell line; assay: Neutral red, absorbance (NRa), AB/CFDA/NR multiplex, lysosome stability; format: cell-based, zebrafish (Danio rerio); details: Danio rerio, Fibroblast
[12] = tested on: ZFL (hepatocytes) cell line; assay: cells; format: cell-based, zebrafish (Danio rerio); details: Danio rerio, Hepatocyte; remark: listed apart in the source
[13] = tested on: ZF4 (fibroblasts) cell line; assay: Neutral red, fluorescence (NRf), AB/CFDA/NR multiplex, lysosome stability; format: cell-based, zebrafish (Danio rerio); details: Danio rerio, Fibroblast
[14] = tested on: ZFL (hepatocytes) cell line; assay: cells; format: cell-based, zebrafish (Danio rerio); details: Danio rerio, Hepatocyte; remark: listed apart in the source
zebrafish embryos [15] = assay: animal or person; format: in vivo, zebrafish (Danio rerio); details: for EC50: Danio rerio
ZF4 and ZFL cell lines = assay: Cytotoxicity assays, all endpoints, both cell lines (mean/range); format: cell-based, zebrafish (Danio rerio); details: 48 h, mean of all cytotoxicity endpoints (without LDH) in ZF4 and ZFL
[16] = tested on: zebrafish cell lines vs zebrafish embryo; assay: Potency ratios IC50;x/EC50;x (cytotoxicity assays vs mFET); design: species or system zebrafish (Danio rerio)
zebrafish embryos [17] = tested on: zebrafish embryos; design: method as in earlier work; details: nominal, cited from earlier work
[18] = ref Comptox, PubChem or DrugBank; cited from earlier work

Cc1cc(-n2c(=O)[nH]c(=O)n(C)c2=O)ccc1Oc1ccc(SC(F)(F)F)cc1 [Toltrazuril, toltrazuril]
IC50 ([1]; MTS - ZF4, log10 of IC50, read-out: LogIC50 (converted)): 175 µM
IC50 ([1]; MTS - ZF4, read-out: IC50): 175 µM
IC50 ([1]; ZF4, 48 h exposure, nominal, log10, read-out: logIC50 (log10 IC50;nom) MTS (converted)): 174 µM
IC50 ([1]; ZF4, 48 h exposure, nominal, read-out: IC50;nom MTS): 175 µM
IC50 ([2]; MTS - ZFL, log10 of IC50, read-out: LogIC50 (converted)): 62.8 µM
IC50 ([2]; MTS - ZFL, read-out: IC50): 62.8 µM
IC50 ([2]; ZFL, 48 h exposure, nominal, log10, read-out: logIC50 (log10 IC50;nom) MTS (converted)): 63.1 µM
IC50 ([2]; ZFL, 48 h exposure, nominal, read-out: IC50;nom MTS): 62.8 µM
IC50 ([3]; BCA - ZF4, log10 of IC50, read-out: LogIC50 (converted)): 141 µM
IC50 ([3]; BCA - ZF4, read-out: IC50): 141 µM
IC50 ([3]; ZF4, 48 h exposure, nominal, log10, read-out: logIC50 (log10 IC50;nom) BCA (converted)): 141 µM
IC50 ([3]; ZF4, 48 h exposure, nominal, read-out: IC50;nom BCA): 141 µM
IC50 ([4]; BCA - ZFL, log10 of IC50, read-out: LogIC50 (converted)): 294 µM
IC50 ([4]; BCA - ZFL, read-out: IC50): 294 µM
IC50 ([4]; ZFL, 48 h exposure, nominal, log10, read-out: logIC50 (log10 IC50;nom) BCA (converted)): 295 µM
IC50 ([4]; ZFL, 48 h exposure, nominal, read-out: IC50;nom BCA): 294 µM
IC50 ([5]; ATP - ZF4, log10 of IC50, read-out: LogIC50 (converted)): 43.8 µM
IC50 ([5]; ATP - ZF4, read-out: IC50): 43.8 µM
IC50 ([5]; ZF4, 48 h exposure, nominal, log10, read-out: logIC50 (log10 IC50;nom) ATP (converted)): 43.7 µM
IC50 ([5]; ZF4, 48 h exposure, nominal, read-out: IC50;nom ATP): 43.8 µM
IC50 ([6]; ATP - ZFL, log10 of IC50, read-out: LogIC50 (converted)): 20.3 µM
IC50 ([6]; ATP - ZFL, read-out: IC50): 20.3 µM
IC50 ([6]; ZFL, 48 h exposure, nominal, log10, read-out: logIC50 (log10 IC50;nom) ATP (converted)): 20.4 µM
IC50 ([6]; ZFL, 48 h exposure, nominal, read-out: IC50;nom ATP): 20.3 µM
IC50 ([7]; AB - ZF4, log10 of IC50, read-out: LogIC50 (converted)): 97.5 µM
IC50 ([7]; AB - ZF4, read-out: IC50): 97.5 µM
IC50 ([7]; ZF4, 48 h exposure, nominal, log10, read-out: logIC50 (log10 IC50;nom) AB (converted)): 97.7 µM
IC50 ([7]; ZF4, 48 h exposure, nominal, read-out: IC50;nom AB): 97.5 µM
IC50 ([8]; AB - ZFL, log10 of IC50, read-out: LogIC50 (converted)): 69.6 µM
IC50 ([8]; AB - ZFL, read-out: IC50): 69.6 µM
IC50 ([8]; ZFL, 48 h exposure, nominal, log10, read-out: logIC50 (log10 IC50;nom) AB (converted)): 69.2 µM
IC50 ([8]; ZFL, 48 h exposure, nominal, read-out: IC50;nom AB): 69.6 µM
IC50 ([9]; CFDA - ZF4, log10 of IC50, read-out: LogIC50 (converted)): 104 µM
IC50 ([9]; CFDA - ZF4, read-out: IC50): 104 µM
IC50 ([9]; ZF4, 48 h exposure, nominal, log10, read-out: logIC50 (log10 IC50;nom) CFDA (converted)): 105 µM
IC50 ([9]; ZF4, 48 h exposure, nominal, read-out: IC50;nom CFDA): 104 µM
IC50 ([10]; CFDA - ZFL, log10 of IC50, read-out: LogIC50 (converted)): 122 µM
IC50 ([10]; CFDA - ZFL, read-out: IC50): 122 µM
IC50 ([10]; ZFL, 48 h exposure, nominal, log10, read-out: logIC50 (log10 IC50;nom) CFDA (converted)): 123 µM
IC50 ([10]; ZFL, 48 h exposure, nominal, read-out: IC50;nom CFDA): 122 µM
IC50 ([11]; NR-abs - ZF4, log10 of IC50, read-out: LogIC50 (converted)): 49.4 µM
IC50 ([11]; NR-abs - ZF4, read-out: IC50): 49.4 µM
IC50 ([11]; ZF4, 48 h exposure, nominal, log10, read-out: logIC50 (log10 IC50;nom) NRa (converted)): 49 µM
IC50 ([11]; ZF4, 48 h exposure, nominal, read-out: IC50;nom NRa): 49.4 µM
IC50 ([11]; ZF4 cell line, NRa endpoint, nominal, read-out: IC50;nom): 21 µg/mL
IC50 ([12]; NR-abs - ZFL, log10 of IC50, read-out: LogIC50 (converted)): 84.7 µM
IC50 ([12]; NR-abs - ZFL, read-out: IC50): 84.7 µM
IC50 ([12]; ZFL, 48 h exposure, nominal, log10, read-out: logIC50 (log10 IC50;nom) NRa (converted)): 85.1 µM
IC50 ([12]; ZFL, 48 h exposure, nominal, read-out: IC50;nom NRa): 84.7 µM
IC50 ([13]; NR-fluo - ZF4, log10 of IC50, read-out: LogIC50 (converted)): 81.3 µM
IC50 ([13]; NR-fluo - ZF4, read-out: IC50): 81.3 µM
IC50 ([13]; ZF4, 48 h exposure, nominal, log10, read-out: logIC50 (log10 IC50;nom) NRf (converted)): 81.3 µM
IC50 ([13]; ZF4, 48 h exposure, nominal, read-out: IC50;nom NRf): 81.3 µM
IC50 ([14]; NR-fluo - ZFL, log10 of IC50, read-out: LogIC50 (converted)): 78.7 µM
IC50 ([14]; NR-fluo - ZFL, read-out: IC50): 78.7 µM
IC50 ([14]; ZFL, 48 h exposure, nominal, log10, read-out: logIC50 (log10 IC50;nom) NRf (converted)): 79.4 µM
IC50 ([14]; ZFL, 48 h exposure, nominal, read-out: IC50;nom NRf): 78.7 µM
difference in toxicity (EC50;nom) between 48 hpf and 144 hpf (zebrafish embryos [15]; 48 hpf time point less sensitive than 144 hpf): marginally more toxic
log EC50;nom (mFET) (zebrafish embryos [15]; 48 hpf, nominal, log10, listed as Tol): -4.897 M
EC50 (zebrafish embryos [15]; 48 hpf, nominal, log10, read-out: log EC50;nom (mFET) (converted)): 12.6 µM
EC50 (zebrafish embryos [15]; 48 hpf, nominal, read-out: EC50;nom (embryo)): 5.4 µg/mL
EC50 (zebrafish embryos [15]; read-out: EC50 48hpf): 12.7 µM
EC50 (zebrafish embryos [15]; read-out: EC50;nom (mFET)): 12.7 µM
IC50 (ZF4 and ZFL cell lines; Danio rerio, log10, read-out: Mean log IC50nom (converted)): 85.1 µM
Mean log IC50nom (ZF4 and ZFL cell lines; log10, listed as Tol): -4.074 M
in vitro toxicity (IC50;free) higher than EC50;nom ([16]; ZF4 NRa endpoint vs embryo): 2 fold
potency ratio IC50;nom/EC50;nom (median) ([16]; median over cytotoxicity endpoints, nominal, 48 h cells / 48 hpf mFET): 6.54
EC50 (zebrafish embryos [17]; 144 hpf, converted): 2.59 µM
logEC50 144 hpf (zebrafish embryos [17]; log10): -5.5874 M
BCF [18]: 14.3
Physiological charge [18]: 0
Water Solubility [18]: insoluble
logKoa [18]: 10.2
logKow [18]: 4.31
pKa (Strongest Acidic) [18]: 6.47
w_solubility (water solubility) [18]: 106 µM
